Data: paper PMC7002685, “Inhibition of vascular calcification by inositol phosphates derivatized with ethylene glycol oligomers” (Nature Communications, 2020)
Where “and” joins values, the source holds several entries; their conditions need not be identical. Equal values may be shown once. Read-outs that look alike come from different tables or passages of the source.

Key:
[1] = PK i.v. bolus in healthy and adenine/high-phosphate-diet (uremic) rats; assay type: in vivo, male Sprague-Dawley rats; set-up: plasma concentration (Figure 4g): unit not given here; details: for AUC(0-inf) / Cmax / clearance / half-life / AUC(0-t) / MRT last: serum, 10 mg/kg i.v. bolus; for AUC(0-t): read-out: AUC0-240 (converted); for MRT last: read-out: MRT0-240 (converted)
Protocol: (§1) For many drugs, the PK profile depends on the patient’s renal status. Therefore, (OEG2)2-IP4 PK profile was also determined in an adenine and high-phosphate-diet-induced rat model of uremia, in which the compound was administered after serum creatinine levels had increased by fourfold relative to baseline (Fig. 4g, h). […] Similar results were observed following s.c. administration (Supplementary Table 5).
(§2) To study PK in uremic animals, male Sprague-Dawley rats (Charles River Laboratories, L’Arbresle, France) were housed two per cage with free access to water and standard chow (rat/mouse maintenance diet, SSNIFF Spezialdiäten GmbH, Soest, Germany) and submitted to a 12-h light/dark cycle. Animals were fed a low-protein (2.5%) diet containing high phosphorus (1.3% phosphorus and 0.7% calcium) and 0.3% adenine to induce uremia (SSNIFF Spezialdiäten GmbH). Control animals were fed same diet but without adenine. Every 10 days, a sample of blood was punctured at the tail vein of each animal. Serum and urine creatinine, calcium, and phosphorus were then assessed using standard colorimetric biochemistry analysis (Cobas Mira, Roche, Basel, Switzerland). When a fourfold increase of creatinine was observed compared to control, the rat was considered uremic and suitable for PK experiments. The method was validated using eight animals on control- and adenine-supplemented diet respectively. For PK studies, on the morning of the experimental day, a catheter was inserted in the right carotid artery under halothane anesthesia. Subsequently, rats were allowed to recover for 3 h and uremic and non-uremic rats, respectively, were assigned to three groups of six rats each. […] Blood aliquots were drawn after drug administration, centrifuged, decanted, and stored at −80 °C until serum drug quantification by LC-MS, as well as analysis of serum creatinine, calcium, and phosphorus (Cobas Mira).
(§3) The bioanalytical method for (OEG2)2-IP4 in rat plasma was further optimized, qualified, and applied to the comparative PK study in adenine and high-phosphate diet-induced VC vs. vitamin D-induced VC animals. The LC-MS/MS analyses were carried out using a Dionex Ultimate RSLC ultra-high-pressure liquid chromatography (UHPLC) system (Thermo Fisher Scientific) coupled with a TSQ Quantiva^TM triple quadrupole mass spectrometer. The samples were stored at 5 °C in the autosampler prior to and during the analyses. […] Gradient elution (solvent A, 20 mM ammonium acetate in water (pH 5); solvent B, ACN) was used according to the program reported in Supplementary Table 18. The injection volume was 10 µL. MS/MS parameters (MRM acquisition, cycle time 0.2 s) for (OEG2)2-IP4 are reported in Supplementary Table 19 and the ESI source, working in negative ionization mode, applied the following parameters: static spray voltage 3000 V ion transfer tube and vaporizer temperatures at 400 and 100 °C, respectively; sheath and auxiliary gas (nitrogen) flow rates at 80 and 3 (arbitrary units). For the quantitative determination in rat plasma, product ion m/z 158.9 was selected because it provided the best sensitivity and selectivity. Calibration curve and quality control samples were prepared by adding 2 μL of working solution to 38 μL rat blank K3EDTA plasma (Biochemed, Winchester, VA) and precipitating plasma protein by addition of 120 μL of MeOH including internal standard OEG11-IP5. Samples were vortexed 1 min and centrifuged at (22,000 × g, 4 °C, 10 min). Supernatants (90 μL) were then transferred into a glass vial with insert and injected onto LC-MS/MS system. Both in adenine and high-phosphate diet-induced VC and vitamin D-induced VC rat PK samples were prepared for analysis in an analogous manner as done for spiked samples (assay volume 40 μL). The LLOQ and LOD in rat plasma for (OEG2)2-IP4 were 50 and 10 ng/mL, respectively. The ULOQ and detection was 50,000 ng/mL.

[2] = PK s.c. in healthy and adenine/high-phosphate-diet (uremic) rats; assay type: in vivo; details: male, Sprague-Dawley, rat, sc; for AUC(0-t): read-out: AUC0-360 (converted)
Protocol: as §1, §2, §3

[3] = target: T1, Peptidase, CTSG (Cathepsin G) (Homo sapiens, UniProt P08311); test: Off-target 112510; assay type: biochemical
T1 construct: purchased Eurofins Panlabs Discovery Services Taiwan, Ltd
T1 sequence (P08311 21-255): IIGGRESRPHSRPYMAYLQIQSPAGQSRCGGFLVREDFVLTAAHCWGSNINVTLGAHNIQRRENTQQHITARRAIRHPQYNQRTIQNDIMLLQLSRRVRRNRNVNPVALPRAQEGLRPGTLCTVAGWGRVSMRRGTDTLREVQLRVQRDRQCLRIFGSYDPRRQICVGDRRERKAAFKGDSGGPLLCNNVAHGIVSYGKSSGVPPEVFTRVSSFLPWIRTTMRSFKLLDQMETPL
Protocol: (§4) The potential off-target activity of 10 µM (OEG2)2-IP4 was assessed against a panel of 87 enzymes, receptors, or ion channels that are used in standard safety pharmacology screens.
(§5) 3.2. Off-target screening assay
(§6) The experiments were conducted by a contract research organization (Eurofins Panlabs Discovery Services Taiwan, Ltd.) and details on the respective assays can be retrieved via the catalog number provided in Supplementary Table 11 from the company’s webpage
(§7) (https://www.eurofinsdiscoveryservices.com/). […]
(§8) At sacrifice the left tibia of animals of the rat model with dietary adenine/high-phosphate-induced uremia and VC was collected, fixed with 70% v/v EtOH and embedded in methyl methacrylate. The trabecular bone compartment is known to be the most metabolic active i.e. actively re-structured bone compartment in CKD. Therefore, histomorphometric and micro-computed tomography (µCT) analysis of bone was performed on the trabecular compartment. Tibial sections were Goldner-stained for histomorphometric analysis of the proximal metaphysis using the AxioVision Release 4.5 software, as […]
(§9) described previously5. […]

α2B = target: T2, α2B (Homo sapiens, UniProt P18089); test: Off-target 203710; assay type: binding
T2 construct: purchased Eurofins Panlabs Discovery Services Taiwan, Ltd
T2 sequence (P18089 whole entry): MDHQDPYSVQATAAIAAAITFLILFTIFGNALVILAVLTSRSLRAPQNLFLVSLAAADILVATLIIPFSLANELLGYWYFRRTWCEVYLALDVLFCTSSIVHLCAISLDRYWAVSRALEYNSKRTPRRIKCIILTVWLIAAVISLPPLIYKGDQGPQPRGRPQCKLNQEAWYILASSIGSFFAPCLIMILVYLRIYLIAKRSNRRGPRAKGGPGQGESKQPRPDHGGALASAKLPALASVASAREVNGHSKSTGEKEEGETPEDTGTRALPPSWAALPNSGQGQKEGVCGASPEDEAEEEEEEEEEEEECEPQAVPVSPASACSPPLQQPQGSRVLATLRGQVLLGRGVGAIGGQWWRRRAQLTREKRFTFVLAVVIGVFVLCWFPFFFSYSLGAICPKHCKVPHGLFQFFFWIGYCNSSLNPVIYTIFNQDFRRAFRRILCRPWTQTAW
Protocol: as §4, §5
The experiments were conducted by a contract research organization (Eurofins Panlabs Discovery
Services Taiwan, Ltd.) and details on the respective assays can be retrieved via the catalog number
provided in Supplementary Table 11 from the company’s webpage
as §7

[4] = target: T3, Serotonin (5-Hydroxytryptamine) 5-HT2A (Homo sapiens, UniProt P28223); test: Off-target 271650; assay type: binding
T3 construct: purchased Eurofins Panlabs Discovery Services Taiwan, Ltd
T3 sequence (P28223 whole entry): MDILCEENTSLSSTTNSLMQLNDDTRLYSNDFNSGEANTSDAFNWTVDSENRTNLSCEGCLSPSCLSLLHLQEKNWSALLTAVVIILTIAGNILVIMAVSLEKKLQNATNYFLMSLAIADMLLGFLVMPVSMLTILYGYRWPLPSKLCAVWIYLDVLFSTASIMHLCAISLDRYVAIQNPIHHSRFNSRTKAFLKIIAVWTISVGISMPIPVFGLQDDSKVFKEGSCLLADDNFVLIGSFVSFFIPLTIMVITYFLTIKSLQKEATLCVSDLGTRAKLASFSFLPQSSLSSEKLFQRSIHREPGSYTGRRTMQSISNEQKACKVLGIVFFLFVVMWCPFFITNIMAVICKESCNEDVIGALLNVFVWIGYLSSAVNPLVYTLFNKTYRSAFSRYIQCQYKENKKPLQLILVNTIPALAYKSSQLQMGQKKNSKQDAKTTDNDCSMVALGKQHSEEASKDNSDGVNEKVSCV
Protocol: as §4, §5, §6, §7, §8, §9

[5] = male, Sprague-Dawley, rat, iv, 10 mg/kg, Healthy
[6] = male, Sprague-Dawley, rat, iv, 10 mg/kg, Uremic
[7] = serum, 10 mg/kg, 10 mg/kg s.c., Healthy
[8] = serum, 10 mg/kg, 10 mg/kg s.c., Uremic

## COCCOCCO[C@@H]1[C@@H](OP(=O)(O)O)[C@H](OCCOCCOC)[C@@H](OP(=O)(O)O)[C@@H](OP(=O)(O)O)[C@H]1OP(=O)(O)O [(OEG2)2-IP4, 4,6-Di-O-(methoxy-diethyleneglycol)-myo-inositol-1,2,3,5-tetrakis(phosphate)]
[1]; 10 mg/kg i.v.
  fold longer t1/2 in uremic rats: 1.6 fold
[1]; Healthy, i.v., Time 5 min, individual rats
  plasma concentration (Figure 4g): 34.3554 and 28.9453 and 26.4893 and 36.6347 and 33.1433
[1]; Healthy, i.v., Time 0.25 h, individual rats
  plasma concentration (Figure 4g): 30.5208 and 13.9972 and 12.439 and 10.9827 and 13.2633 and 11.7166
[1]; Healthy, i.v., Time 0.5 h, individual rats
  plasma concentration (Figure 4g): 27.5306 and 9.488 and 4.56 and 3.6178 and 4.794 and 4.014
[1]; Healthy, i.v., Time 1 h, individual rats
  plasma concentration (Figure 4g): 9.6556 and 4.29 and 0.6765 and 0.5745 and 0.5328 and 0.7985
[1]; Healthy, i.v., Time 2 h, individual rats
  plasma concentration (Figure 4g): 7.991 and 1.14 and 0.125 and 0.07468 and 0.07899 and 0.1206
[1]; Healthy, i.v., Time 3 h, individual rats
  plasma concentration (Figure 4g): 3.3004 and 0.5084 and 0.05745 and 0.03303 and 0.0316 and 0.04883
[1]; Healthy, i.v., Time 4 h, individual rats
  plasma concentration (Figure 4g): 2.7015 and 0.1767 and 0.01436 and 0.02585 and 0.02298 and 0.0316
[1]; Uremic, i.v., Time 5 min, individual rats
  plasma concentration (Figure 4g): 32.8173 and 29.5312 and 43.7899 and 28.895 and 62.6472 and 41.0266
[1]; Uremic, i.v., Time 10 min, individual rats
  plasma concentration (Figure 4g): 43.2182 and 28.9366
[1]; Uremic, i.v., Time 0.25 h, individual rats
  plasma concentration (Figure 4g): 27.5292 and 20.3309 and 31.0464 and 22.8615
[1]; Uremic, i.v., Time 0.5 h, individual rats
  plasma concentration (Figure 4g): 20.0681 and 12.3154 and 17.5978 and 17.7285
[1]; Uremic, i.v., Time 1 h, individual rats
  plasma concentration (Figure 4g): 13.305 and 19.9618 and 12.7047 and 6.171 and 9.641 and 11.83
[1]; Uremic, i.v., Time 1.5 h, individual rats
  plasma concentration (Figure 4g): 9.875 and 10.075
[1]; Uremic, i.v., Time 2 h, individual rats
  plasma concentration (Figure 4g): 4.81 and 2.841 and 7.088 and 3.03 and 4.689 and 9.284
[1]; Uremic, i.v., Time 3 h, individual rats
  plasma concentration (Figure 4g): 1.893 and 4.314 and 1.879 and 2.2534
[1]; Uremic, i.v., Time 4 h, individual rats
  plasma concentration (Figure 4g): 1.159 and 0.6736 and 3.1697 and 1.081 and 1.337
[1]; male, Sprague-Dawley, rat, plasma, iv, 10 mg/kg, Healthy, i.v., Time 5 min, individual rats, read-out: plasma concentration (Figure 4g)
  concentration at 5 min: 51.8 µM
[1]; male, Sprague-Dawley, rat, plasma, iv, 10 mg/kg, Healthy, i.v., Time 10 min, individual rats, read-out: plasma concentration (Figure 4g)
  concentration at 10 min: 36.1 µM
[1]; male, Sprague-Dawley, rat, plasma, iv, 10 mg/kg, Uremic, i.v., Time 10 min, individual rats, read-out: plasma concentration (Figure 4g)
  concentration at 10 min: 46 µM
[1]; male, Sprague-Dawley, rat, plasma, iv, 10 mg/kg, Uremic, i.v., Time 0.25 h, individual rats, read-out: plasma concentration (Figure 4g)
  concentration at 0.25 h: 27.7 µM
[1]; male, Sprague-Dawley, rat, plasma, iv, 10 mg/kg, Uremic, i.v., Time 0.5 h, individual rats, read-out: plasma concentration (Figure 4g)
  concentration at 0.5 h: 19 µM
[1]; male, Sprague-Dawley, rat, plasma, iv, 10 mg/kg, Uremic, i.v., Time 1.5 h, individual rats, read-out: plasma concentration (Figure 4g)
  concentration at 1.5 h: 7.2 µM
[1]; [5]
  AUC(0-inf): 18.5 µM·h
  Cmax: 35 ± 9 µM
  clearance: 17.9 ± 7.7 mL/min/kg
  half-life: 0.867 ± 0.233 h
  AUC(0-t): 17.8 µM·h
  MRT last: 0.433 h
[1]; [6]
  AUC(0-inf): 45.6 µM·h
  Cmax: 43 ± 12 µM
  clearance: 5.8 ± 2 mL/min/kg
  half-life: 1.38 ± 0.783 h
  AUC(0-t): 37 µM·h
  MRT last: 0.883 h
[2]; plasma, 10 mg/kg, Healthy, s.c., Time 3 h, individual rats, read-out: plasma concentration (Figure 4h)
  concentration at 3 h: 2.57 µM
[2]; [7]
  AUC(0-inf): 19.7 µM·h
  MRT: 1.1 h
  half-life: 1.32 ± 0.45 h
  AUC(0-t): 19.2 µM·h
[2]; [8]
  AUC(0-inf): 37.9 µM·h
  MRT: 2.07 h
  half-life: 2.05 ± 1.07 h
  AUC(0-t): 31.8 µM·h
[2]; serum, 10 mg/kg s.c., Healthy
  Cmax: 12 ± 4 µM
[3]
  inhibition at 10 µM: 23%
α2B
  inhibition at 10 µM: 3%
[4]
  inhibition at 10 µM: -1%
